Data set [1] relates to apolipoprotein B protein. Briefly: Apolipoprotein B protein secreted from primary human hepatocytes, ELISA. The class given is cell-based. Conditions: 300 nM.
A short description of data set [2]: Transgenic mice dosing study (Example 52): serum total, LDL- and HDL-cholesterol. The class given is in vivo, mouse. The settings on record: serum. As for the experimental part:
A long-term study of inhibition of human apolipoprotein B by ISIS 301012 in C57BL/6NTac-TgN(APOB100) mice (Taconic, Germantown, N.Y.) was conducted for a 3 month period. Mice were dosed intraperitoneally twice a week with 10 or 25 mg/kg ISIS 301012 (SEQ ID No: 247) for 12 weeks. Saline-injected animals served as controls. Each treatment group comprised 4 animals.
Results are presented as mg/dL in serum and represent the average of 4 animals. Results from the saline control animals are also shown.

Data set [3] relates to human apolipoprotein B protein. The data set can be described thus: Transgenic mice (Example 47): serum human apolipoprotein B protein by ELISA. Conditions: 25 mg/kg, relative to saline-treated animals. The class given is in vivo, human transgene in mouse. The procedure: Serum samples were also collected at 2, 4, 6 and 8 weeks and were evaluated for human apolipoprotein B expression by using a human apolipoprotein B specific ELISA kit (ALerCHEK Inc., Portland, Me.). […] Treatment with ISIS 301012 reduced serum human apolipoprotein B protein by 70, 87, 81 and 41% at 2, 4, 6 and 8 weeks, respectively, relative to saline-treated control animals. Serum from transgenic mice was also subjected to immunoblot analysis using both human and mouse specific apolipoprotein B antibodies (US Biologicals, Swampscott, Mass. and Santa Cruz Biotechnology, Inc., Santa Cruz, Calif., respectively).

The mark [4] stands for this setting: 10 mg/kg i.p. twice a week, 2 weeks.
The mark [5] stands for this setting: 10 mg/kg i.p. twice a week, 4 weeks.
Where [6] appears, read: 10 mg/kg i.p. twice a week, 6 weeks.
Setting [7] is: 10 mg/kg i.p. twice a week, 8 weeks.
The mark [8] stands for this setting: 10 mg/kg i.p. twice a week, Start.
Setting [9] is: 25 mg/kg i.p. twice a week, 2 weeks.
[10] abbreviates: 25 mg/kg i.p. twice a week, 4 weeks.
Where [11] appears, read: 25 mg/kg i.p. twice a week, 6 weeks.
The mark [12] stands for this setting: 25 mg/kg i.p. twice a week, 8 weeks.
Setting [13] is: 25 mg/kg i.p. twice a week, Start.

Three substances from patent US7803930B2, “Antisense modulation of apolipoprotein B-expression” (Isis Pharmaceuticals, Inc., priority 2002, dated 2010) can be followed below.

In the oligonucleotide strings, read from the 5' end, every base follows the letter of its sugar. An asterisk marks phosphorothioate; unmarked linkages are phosphodiester. Other units and linkages are bracketed, terminal groups are in braces. A string of capitals states the bases alone. e = 2'-O-(2-methoxyethyl) (MOE); [5mC] = 5-methylcytosine; d = 2'-deoxy (DNA)

Regarding “113529 (antisense e[5mC]*eT*e[5mC]*eT*eT*dA*d[5mC]*dT*dG*dT*dG*d[5mC]*dT*dG*dT*eG*eG*eA*e[5mC]*eA) [compound 113529]”, the figures for the “% Change in apolipoprotein B protein secretion” value in data set [1] (24 hours) and in data set [1] (48 hours) were −2% and −5%, respectively.

Regarding “301012 (eG*e[5mC]*e[5mC]*eT*e[5mC]*dA*dG*dT*d[5mC]*dT*dG*d[5mC]*dT*dT*d[5mC]*eG*e[5mC]*eA*e[5mC]*e[5mC]) [compound 301012]”, the “% Change in apolipoprotein B protein secretion” value in data set [1] (24 hours) was −41%; in data set [1] (48 hours), −48%.

Turning to “ISIS 301012: SEQ ID NO: 247, antisense oligonucleotide targeted to human apolipoprotein B (antisense GCCTCAGTCTGCTTCGCACC; chemistry not given here)”, the HDL-cholesterol in data set [2] (setting [4]) is reported as 69 mg/dL; in data set [2] (setting [5]), 78 mg/dL; in data set [2] (setting [6]), 72 mg/dL; in data set [2] (setting [7]), 79 mg/dL; in data set [2] (setting [8]), 70 mg/dL; in data set [2] (setting [9]), 73 mg/dL. The HDL-cholesterol in data set [2] (setting [10]) is 76 mg/dL; in data set [2] (setting [11]), 80 mg/dL; in data set [2] (setting [12]), 91 mg/dL; in data set [2] (setting [13]) it was 64 mg/dL. The LDL-cholesterol was 20 mg/dL in data set [2] (setting [4]); 23 mg/dL in data set [2] (setting [5]); 37 mg/dL in data set [2] (setting [6]); 33 mg/dL in data set [2] (setting [7]); 35 mg/dL in data set [2] (setting [8]); 19 mg/dL in data set [2] (setting [9]). The LDL-cholesterol is recorded as 19 mg/dL in data set [2] (setting [10]), 37 mg/dL in data set [2] (setting [11]), 44 mg/dL in data set [2] (setting [12]) and 33 mg/dL in data set [2] (setting [13]). Besides, the Total cholesterol in data set [2] (setting [4]) worked out at 97 mg/dL; in data set [2] (setting [5]), 111 mg/dL; in data set [2] (setting [6]), 120 mg/dL; in data set [2] (setting [7]) it was 122 mg/dL; in data set [2] (setting [8]), 115 mg/dL; in data set [2] (setting [9]), 101 mg/dL. For the same substance, the Total cholesterol in data set [2] (setting [10]) is listed as 107 mg/dL; in data set [2] (setting [11]) it was 124 mg/dL; in data set [2] (setting [12]), 147 mg/dL; in data set [2] (setting [13]), 107 mg/dL. Further, the “reduction of serum human apolipoprotein B protein (ELISA)” value in data set [3] (2 weeks) worked out at 70%; in data set [3] (4 weeks) it was 87%; in data set [3] (6 weeks) it was 81%; in data set [3] (8 weeks), 41%.
